Measured values: article PMC10290124 (Nature Communications, 2023)

What was measured:
[1] = target: T1, human TRPV4 (hTRPV4) (Homo sapiens, UniProt Q9HBA0)
[2] = target: T1, human TRPV4 (hTRPV4); experiment: cryo-EM structure ([…] Å, open state); EC50 from Fura-2 calcium imaging in HEK […] cells; assay type: cell-based; design: with RhoA
[3] = target: T2, RhoA (Homo sapiens, UniProt P61586); experiment: cryo-EM structure of the hTRPV4-RhoA complex (ARD-RhoA local refinement, […] Å); assay type: binding
T2 construct: endogenous RhoA from HEK 293S cells, co-purified with hTRPV4; with TRPV4
T2 sequence (P61586 1-190): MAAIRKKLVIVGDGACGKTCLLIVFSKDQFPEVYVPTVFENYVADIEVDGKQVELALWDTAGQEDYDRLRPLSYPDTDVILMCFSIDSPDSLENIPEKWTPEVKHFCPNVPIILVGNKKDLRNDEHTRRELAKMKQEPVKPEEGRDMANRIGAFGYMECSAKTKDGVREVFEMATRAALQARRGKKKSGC
T2 sequence (Q9HBA0 whole entry partner): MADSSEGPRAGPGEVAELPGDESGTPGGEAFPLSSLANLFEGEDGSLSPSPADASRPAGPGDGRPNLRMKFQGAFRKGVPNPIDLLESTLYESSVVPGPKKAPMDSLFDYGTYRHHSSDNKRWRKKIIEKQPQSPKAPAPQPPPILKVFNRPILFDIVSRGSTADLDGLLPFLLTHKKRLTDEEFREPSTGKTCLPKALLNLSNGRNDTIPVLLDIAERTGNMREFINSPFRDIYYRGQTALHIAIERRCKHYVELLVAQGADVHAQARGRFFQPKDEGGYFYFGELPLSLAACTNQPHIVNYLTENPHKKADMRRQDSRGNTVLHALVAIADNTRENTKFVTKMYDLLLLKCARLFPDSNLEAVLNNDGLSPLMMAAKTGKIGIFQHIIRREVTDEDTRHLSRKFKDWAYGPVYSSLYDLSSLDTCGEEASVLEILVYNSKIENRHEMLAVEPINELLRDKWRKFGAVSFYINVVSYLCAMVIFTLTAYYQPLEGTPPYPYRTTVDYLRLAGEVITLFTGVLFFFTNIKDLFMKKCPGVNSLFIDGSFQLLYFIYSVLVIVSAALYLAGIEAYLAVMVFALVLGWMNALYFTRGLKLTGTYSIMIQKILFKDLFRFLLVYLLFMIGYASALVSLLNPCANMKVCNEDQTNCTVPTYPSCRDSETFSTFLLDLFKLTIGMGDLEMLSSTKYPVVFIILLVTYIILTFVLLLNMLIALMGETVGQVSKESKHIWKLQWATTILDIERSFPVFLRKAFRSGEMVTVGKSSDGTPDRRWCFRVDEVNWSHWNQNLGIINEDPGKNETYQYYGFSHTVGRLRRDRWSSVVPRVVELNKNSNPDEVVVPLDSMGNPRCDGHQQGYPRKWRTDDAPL

T1 sequence (Q9HBA0 whole entry): as the sequence (Q9HBA0 whole entry partner) above
T1 sequence (P61586 1-190 partner): as the sequence (P61586 1-190) above

Structure (SMILES): Cc1c(C(=O)Nc2cccc(C(F)(F)F)c2)cc(-c2ccccc2)n1CCCN1CCOCC1 [HC-067047]
- IC50 [1]: 25 ± 6.2 nM

Structure (SMILES): CCCCCCCCCC(=O)O[C@@H]1[C@@H](C)[C@@]2(O)[C@@H](C=C(CO)C[C@@]3(O)C(=O)C(C)=C[C@@H]23)[C@@H]2C(C)(C)[C@]12OC(=O)CCCCCCCCC [4α-PDD, 4α-phorbol 12,13-didecanoate]
- EC50 [2]: 450 ± 39 nM

Structure (SMILES): Nc1nc2c(ncn2[C@@H]2O[C@H](CO[P@](=O)(O)OP(=O)(O)O)[C@@H](O)[C@H]2O)c(=O)[nH]1 [GDP, guanosine diphosphate]
- cryo-EM structure of the hTRPV4-RhoA complex (ARD-RhoA local refinement, 3.49 Å) [3]: unambiguously identify the endogenous molecule of guanosine diphosphate (GDP) bound in the RhoA ligand-binding pocket
